In US20040247700A1 (priority 2001, published 2004):
Several values for one entry are separate records, joined by “and”; a condition that tells them apart may be missing. Equal values may be shown once. Read-outs that look alike come from different tables or passages of the source.

What was measured:
[1] = target: T1, COX-2 (Mus musculus, UniProt Q05769); assay: cell-based
T1 construct: LPS, which was used to induce the expression of COX-2 in the RAW 264.7 cells; host or cells: RAW 264.7 (murine), LPS-stimulated
T1 sequence (Q05769 18-604): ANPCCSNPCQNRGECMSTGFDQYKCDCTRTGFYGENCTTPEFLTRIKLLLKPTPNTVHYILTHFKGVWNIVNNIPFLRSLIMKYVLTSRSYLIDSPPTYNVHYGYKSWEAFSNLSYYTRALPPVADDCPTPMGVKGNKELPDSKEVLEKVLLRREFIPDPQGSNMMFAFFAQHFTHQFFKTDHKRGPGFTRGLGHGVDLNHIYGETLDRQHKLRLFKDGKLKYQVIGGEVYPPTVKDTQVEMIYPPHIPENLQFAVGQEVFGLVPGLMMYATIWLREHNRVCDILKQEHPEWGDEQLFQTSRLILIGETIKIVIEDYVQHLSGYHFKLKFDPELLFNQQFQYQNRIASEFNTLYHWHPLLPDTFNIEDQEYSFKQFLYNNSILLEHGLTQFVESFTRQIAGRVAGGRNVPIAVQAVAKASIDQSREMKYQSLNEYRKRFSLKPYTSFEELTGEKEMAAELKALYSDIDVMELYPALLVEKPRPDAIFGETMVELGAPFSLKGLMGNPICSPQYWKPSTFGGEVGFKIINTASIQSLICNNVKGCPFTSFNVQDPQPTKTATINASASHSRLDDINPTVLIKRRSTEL
Protocol: The DMEM growth medium was made as follows 50 mL of heat inactivated FBS and 5 mL of penicillin/streptomycin were added to a 500 mL bottle of DMEM and stored at 4° C. This was warmed to 37° C. in a water bath before use and for best results should be used within three months.
On day one of the experiment, the log phase 264.7 cells were plated at 8×10^4 cells per well in 0.2 mL growth medium per well in a 96-well tissue culture plate. After 6 to 8 hours post plating, 100 μL fresh medium. […] It was mixed until dissolved and stored at 4° C. Immediately before use, it was thawed at room temperature or in a 37° C. water bath. A new solution was prepared every 60 days.
On day two of the experiment, the test materials were prepared as 1000× stock in DMSO. For example, if the final concentration of the test material was to be 10 μg/mL, a 10 mg/mL stock was prepared by dissolving 10 mg of the test material in 1 mL of DMSO. Fresh test materials were prepared on day 2 of the experiment. In 1.7 mL microfuge tubes, 1 mL DMEM without FBS was added to obtain test concentrations of 0.05, 0.10, 0.5, and 1.0 μg/mL. 2 μL of the 1000×DMSO stock of the test material was added to the 1 mL of medium without FBS. The tube contained the final concentration of the test material was concentrated 2-fold. The tube was placed in incubator for 10 minutes to equilibrate.
One-hundred mL of medium was removed from each well of the cell plates prepared on day one. One-hundred mL of equilibrated 2× final concentration the test compounds were added to cells and incubated for 90 minutes. LPS in DMEM without FBS was prepared by adding 44 μL of the 1 mg/mL DMSO to 10 mL of medium. For each well of cells to be stimulated, 20 μL of LPS (final concentration of LPS is 0.4 μg/mL of LPS) was added.
Determination of PGE2 Concentration in Medium
Equipment—freezer, 30° C.
General Procedure—EIA Buffer was prepared by diluting the contents of the EIA Buffer Concentrate (vial #4) with 90 ml of Ultra-pure water. Vial #4 was rinsed several times to ensure all crystals had been removed and was then placed into a 100 mL storage bottle and stored at 4° C.
The Wash Buffer was prepared by diluting Wash Buffer Concentrate (vial #5) 1:400 with Ultra-pure water. 0.5 ml/liter of Tween 20 (vial #5a) was then added (using a syringe for accurate measurement). For one liter Wash Buffer add 2.5 ml Wash Buffer Concentrate, 0.5 ml Tween-20, and 997 ml Ultra-pure water. The solution was stored in a 1 liter storage bottle at 4° C.
The Prostaglandin E2 standard was reconstituted as follows. A200 μL pipet tip was equilibrated by repeatedly filling and expelling the tip several times in ethanol. The tip was used to transfer 100 μL of the PGE2 Standard (vial #3) into a 1.7 mL microfuge tube. 900 μL Ultra-pure water was added to the tube and stored at 4° C., which was stable for ˜6 weeks. The Prostaglandin E2 acetylcholinesterase tracer was reconstituted as follows. 100 μL PGE2 tracer (vial #2) was mixed with 30 mL of the EIA Buffer in a 50 mL centrifuge tube and stored at 4° C.
The Prostaglandin E2 monoclonal antibody was reconstituted as follows. 100 μL PGE2 Antibody (vial #1) was mixed with 30 mL of the EIA buffer in a 50 mL centrifuge tube and stored at 4° C.
DMEM with penicillin/streptomycin was prepared by adding 5 mL penicillin/streptomycin into 5 mL DMEM and stored at 4° C.
The plates were set up as follows: Each plate contained a minimum of two blanks (B), two non-specific binding wells (NSB), two maximum binding wells (B0), and an eight point standard curve run in duplicate (S1-S8).

[2] = target: T2, COX-1 enzyme (ovine) (Ovis aries, UniProt P05979); assay: COX-1 enzyme inhibition (COX-1 synthesis of PGE2); format: biochemical
T2 construct: purchased Cayman Chemical $60100
T2 sequence (P05979 25-600): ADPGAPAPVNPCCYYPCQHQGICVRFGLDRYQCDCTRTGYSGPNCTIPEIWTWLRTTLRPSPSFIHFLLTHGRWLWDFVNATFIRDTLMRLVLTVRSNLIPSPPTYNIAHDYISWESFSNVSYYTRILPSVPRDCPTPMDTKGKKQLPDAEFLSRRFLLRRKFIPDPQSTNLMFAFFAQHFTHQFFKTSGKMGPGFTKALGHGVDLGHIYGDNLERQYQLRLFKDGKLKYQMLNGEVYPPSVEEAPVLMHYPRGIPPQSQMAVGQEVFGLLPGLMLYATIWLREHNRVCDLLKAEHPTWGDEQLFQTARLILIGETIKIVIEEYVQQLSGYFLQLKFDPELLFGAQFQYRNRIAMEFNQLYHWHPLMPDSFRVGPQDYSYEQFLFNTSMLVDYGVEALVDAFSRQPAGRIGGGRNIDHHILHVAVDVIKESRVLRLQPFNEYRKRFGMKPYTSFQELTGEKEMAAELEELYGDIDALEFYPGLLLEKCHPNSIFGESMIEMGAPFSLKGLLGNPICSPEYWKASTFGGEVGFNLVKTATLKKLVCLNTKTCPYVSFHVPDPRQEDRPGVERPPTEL
Protocol: General Prodecure—Oxygen-free 1.0M Tris-HCl buffer (pH 8.0) was prepared as follows: In a 1000 mL beaker, 12.11 g Trizma HCl was dissolved into 900 mL ultra-pure water. The beaker was placed on a stir plate with a stir bar. NaOH was added until the pH reached 8.0. The volume was adjusted to a final volume of 100 mL and stored in a 1000 mL storage bottle.
The Tris-HCl buffer was placed into a vacuum chamber with the top loosened and the air pump was turned on until the buffer stopped bubbling. The vacuum chamber was then turned off and the storage bottle was tightly covered. This steps was repeated each time when oxygen-free Tris-HCl buffer was used.
One mL cofactor solution was prepared by adding 1.3 mg (−) epinephrine, 0.3 mg reduced glutathione and 1.3 mg hematin to 1 mL oxygen free Tris-HCl buffer. The solutions of the test material were prepared as needed, i.e., 10 mg of aspirin was weighed and dissolved into 1 mL DMOS. Enzymes, i.e., prostaglandin E2 or prostaglandin F2alpha, were dissolved in oxygen free Tris-HCl buffer as follows, i.e., on ice, 6.5 μL of enzyme at 40,000 units/mL was taken and added to 643.5 μL of oxygen free Tris-HCl buffer. This enzyme solution is enough for 60 reactions. The COX-1 enzyme solution was prepared as follows: In a 15 mL centrifuge tube, 10 μL centrifuge tube, 10 μL COX-1 enzyme at 40,000 units/mL was added to oxygen free Tris-HCl with 50 μL of the cofactor solution per reaction. The mixture was incubated on ice for five minutes (i.e., for 60 reactions add 65 μL enzyme in oxygen free Tris-HCl buffer with 3.25 mL cofactor solution.
Sixty microliters of the enzyme solution were combined with 20 mL of the test solution in each well of a 96 well plate. […] The plates were preincubated on ice for 10 minutes. Twenty μL arachidonic acid (30 μM) was added and incubated for 15 minutes at 37° C.
The reaction was terminated by adding 10 μL 2 M HCl. The final solution was used as the supernatant for the PGE2 assay.
General Procedure—EIA Buffer was prepared by diluting the contents of the EIA Buffer Concentrate (vial #4) with 90 ml of Ultra-pure water. […]

[3] = tested on: COX-2 over COX-1; conditions: reported, background; cited from earlier work
[4] = RAW 264.7 cell model, read-out: COX-2 IC50 (converted)
[5] = second component alone, PGE2 production by COX-2, RAW 264.7 cells, 24 h LPS, read-out: Second Component IC50 (converted)

Compound	IC50 [1, 4] [µM]	IC50 [1, 5] [µM]	also measured
C=C1CC[C@@H]2[C@](C)(CO)[C@H](O)CC[C@@]2(C)[C@@H]1C/C=C1/C(=O)OC[C@H]1O [Andrographolide]	819	591	SPECIFICITY COX-1/COX-2 ([1]; ratio COX-1 IC50 / COX-2 IC50): 5.2; IC50 ([2]; ovine COX-1 enzyme, read-out: COX-1 IC50 (converted)): ~4280 µM and 4280 µM
COc1cc(/C=C/C(=O)CC(=O)/C=C/c2ccc(O)c(OC)c2)ccc1O [Curcumin]			IC50 ([2]; COX-1 IC50, ovine COX-1 enzyme): 34.2 µM
C[C@H]1[C@H](C)CC[C@]2(C(=O)O)CC[C@]3(C)C(=CC[C@@H]4[C@@]5(C)CC[C@H](O)C(C)(C)[C@@H]5CC[C@]43C)[C@H]12 [Ursolic Acid, Ursolic acid]	130	171	
CC(=O)Oc1ccccc1C(=O)O [aspirin]			COX-2 specificity [3]: 0.6
